From patent US20050060764A1, “Mouse model for bone metabolism” (priority 2003, published 2005)
Strand notation (5' to 3'): a small letter for the sugar, then the base; units joined by * are phosphorothioate-linked, units joined directly phosphodiester-linked; [ ] holds rarer units or linkages, { } end groups; capitals alone tell only the bases. e = 2'-O-(2-methoxyethyl) (MOE); [5mC] = 5-methylcytosine; d = 2'-deoxy (DNA)

Key:
RANK mRNA = RANK mRNA expression in mouse proximal tibia after antisense oligonucleotide treatment and PTH infusion: dose response and delivery method (Table 12); format: in vivo; details: then 24 h PTH
Method: (§1) In accordance with the present invention, ISIS 181071 was evaluated for its ability to inhibit RANK expression and PTH-induced serum calcium concentration increase following 18 days of oligonucleotide treatment.
(§2) Female Swiss-Webster mice (5-8 wks old), fed a low-calcium diet, were treated for 18 days with ISIS 181071 (SEQ ID NO: 356) at different doses and through different delivery methods. The dose of oligonucleotide was either 30 mg/kg, 20 mg/kg, 10 mg/kg, 3 mg/kg, or 0.1 mg/kg administered by daily subcutaneous injections for the first five days, followed by mini-pump infusion for the remaining 13 days, or the dose was 10 mg/kg or 30 mg/kg administered daily by subcutaneous injection for the entire 18 day period. After 18 days of treatment with oligonucleotides, the mice were infused with PTH by subcutaneously implanted mini-pumps at a dose of 1 ug/100 g/6 hr. A group of control mice received saline, calcitonin (400 ng) plus PTH (1 ug/100 g/6 hr) or PTH alone (1 ug/100 g/6 hr). After 24 hours of PTH infusion (total PTH delivery of 4ug/100 g), the mice were sacrificed and measurements were made of serum calcium with the Sigma Diagnostics Calcium Kit (Sigma-Aldrich) and RANK mRNA expression in proximal tibia (as described in other examples herein). The results are shown in Table 12 are normalized to PTH treatment alone and are the average of four mice per group.

[1] = Serum calcium concentration in mice treated with RANK antisense oligonucleotide, no PTH: dose response and delivery method (Table 11); format: in vivo, mouse
Method: In accordance with the present invention, antisense inhibition of the RANKL receptor, RANK, was evaluated in the short-term model of bone resorption. Serum calcium concentration was measured in mice treated with RANK antisense oligonucleotides at different doses, delivered by subcutaneous mini-pumps or subcutaneous injection.
ISIS 181071 ([…], SEQ ID NO: 356) is an antisense oligonucleotide targeted to mouse RANK. […] All cytidine residues are 5-methylcytidines.
Female Swiss-Webster mice (5-8 wks old), fed a low-calcium diet were treated with ISIS 181071 (SEQ ID NO: 356) for 15 days. The dose of oligonucleotide was either 30 mg/kg, 20 mg/kg, 10 mg/kg, 3 mg/kg, or 0.1 mg/kg administered by daily subcutaneous injections for the first five days, followed by mini-pump infusion for the remaining 10 days, or the dose was 10 mg/kg or 30 mg/kg administered daily by subcutaneous injection for the entire 15 day period. No PTH was administered to the mice that received oligonucleotide. A group of control mice were treated with either saline, PTH alone (1 ug/100 g/6 hr) or calcitonin (400 ng) plus PTH (1 ug/100 g/6 hr). After […] (total PTH delivery of 3 ug/100 g), blood samples were taken from the tail of the mice and the serum calcium concentration was measured with the Sigma Diagnostics Calcium Kit (Sigma-Aldrich). […] Thus, increase in serum calcium concentration is due to the PTH treatment rather than the oligonucleotide treatment.

[2] = Serum calcium concentration after RANK antisense oligonucleotide treatment and PTH infusion: dose response and delivery method (Table 12); format: in vivo, mouse
Method: as §1, §2

[3] = Serum calcium concentration after PTH infusion in mice treated with RANK antisense oligonucleotide: dosing schedule study (Table 14); format: in vivo, mouse
Method: In accordance with the present invention, various antisense oligonucleotide dosing schedules were tested for their ability to inhibit serum calcium concentration increase resulting from PTH infusion.
Female Swiss-Webster mice (5-8 wks old) were fed a low-calcium diet. The mice were dosed with the same total amount of ISIS 181071 (SEQ ID NO: 356) (450 mg/kg), however the frequency of the dosage was varied. The first group received daily injections for […]. The second group received daily injections of 30 mg/kg/day for 5 days; the remaining 300 mg/kg was divided into 12 injections over 24 days and were administered every other day. The third group received daily injections of 30 mg/kg/day for 5 days; the remaining 300 mg/kg was divided into 8 injections over 24 days and were administered every third day. The fourth group received daily injections of 30 mg/kg/day for 5 days; the remaining 300 mg/kg was divided into 6 injections over 24 days and were administered every fourth day. Each group contained eight mice. Treatment with oligonucleotides was followed with infusion of PTH by subcutaneously implanted mini-pumps at a dose of 1 ug/100 g/6 hr. A control group received saline or PTH alone (1 ug/100 g/6 hr). After 24 hours of PTH infusion (total PTH delivery of 4 ug/100 g), the mice were sacrificed and the serum calcium concentration was measured with the Sigma Diagnostics Calcium Kit (Sigma-Aldrich). The data are shown in Table 14 and are the average of eight mice per group.

[4] = Short-term bone resorption model: serum calcium after PTH infusion (Table 6); format: in vivo, mouse; details: mice infused with PTH 1 ug/100 g/6 hr
Description: Parathyroidectomized rats are a well-established, short-term model of bone resorption and are useful in the investigation of antiresorptive agents. However, it is difficult to surgically remove only the parathyroid gland of rodents, and the inadvertent removal of the adjacent thyroid gland often has effects on thyroid hormone levels that introduce into the experiment an undesirable level of variability. Continuous infusion of parathyroid hormone (PTH) into intact, young (6-9 weeks old) mice reproduces the short-term bone resorption activity seen in parathyroidectomized rodents and is thus a useful, non-invasive model for the study of antiresorptive agents. The PTH infusion activates bone osteoclasts and causes them to degrade bone matrix, with a resulting rise in serum calcium. In accordance with the present invention, a short-term mouse model of bone resorption was developed and used to evaluate the effects of PTH infusion on serum calcium concentration and RANKL mRNA levels.
Female, Swiss-Webster mice (5-8 weeks old) were placed on a low calcium diet and implanted with mini-pumps delivering PTH continuously. The pumps were calibrated to deliver 1 ug PTH per 100 g bodyweight per 6 hour time period (1 ug/100 g/6 hr). With this procedure, over a 24 hour period, a total of 4 ug PTH per 100 g body weight is delivered (4 ug/100 g/24 hr). PTH infusion was conducted in these mice for 6, 12, 18 and 24 hours. At the end of each time period, the mice were sacrificed and measurements were made of the serum calcium, using the Sigma Diagnostics Calcium Kit (Sigma-Aldrich), and RANKL mRNA expression in the proximal tibia, as described in other examples herein. The data are expressed as percent increase relative to no PTH treatment.

## TCCTCGAGAGGTCTCCTTGC (antisense eT*e[5mC]*e[5mC]*eT*e[5mC]*dG*dA*dG*dA*dG*dG*dT*d[5mC]*dT*d[5mC]*e[5mC]*eT*eT*eG*e[5mC]) [ISIS 181071, 2′-MOE gapmer antisense oligonucleotide targeted to mouse RANK]
RANK mRNA; 0.1 mg/kg, injection 5 days then infusion 13 days
  RANK mRNA % inhibition (normalized to PTH): 19%
RANK mRNA; 3 mg/kg, injection 5 days then infusion 13 days
  RANK mRNA % inhibition (normalized to PTH): 5%
RANK mRNA; 10 mg/kg daily subcutaneous injection 18 days
  RANK mRNA % inhibition (normalized to PTH): 29%
RANK mRNA; 10 mg/kg, injection 5 days then infusion 13 days
  RANK mRNA % inhibition (normalized to PTH): 23%
RANK mRNA; 20 mg/kg, injection 5 days then infusion 13 days
  RANK mRNA % inhibition (normalized to PTH): 33%
RANK mRNA; 30 mg/kg daily subcutaneous injection 18 days
  RANK mRNA % inhibition (normalized to PTH): 30%
RANK mRNA; 30 mg/kg, injection 5 days then infusion 13 days
  RANK mRNA % inhibition (normalized to PTH): 32%
[1]; 0.1 mg/kg, injection 5 days then mini-pump infusion 10 days, no PTH
  Serum calcium concentration: 9 mg/dL
[1]; 3 mg/kg, injection 5 days then mini-pump infusion 10 days, no PTH
  Serum calcium concentration: 9 mg/dL
[1]; 10 mg/kg daily subcutaneous injection 15 days, no PTH
  Serum calcium concentration: 9 mg/dL
[1]; 10 mg/kg, injection 5 days then mini-pump infusion 10 days, no PTH
  Serum calcium concentration: 9 mg/dL
[1]; 20 mg/kg, injection 5 days then mini-pump infusion 10 days, no PTH
  Serum calcium concentration: 9 mg/dL
[1]; 30 mg/kg daily subcutaneous injection 15 days, no PTH
  Serum calcium concentration: 8 mg/dL
[1]; 30 mg/kg, injection 5 days then mini-pump infusion 10 days, no PTH
  Serum calcium concentration: 9 mg/dL
[2]; 0.1 mg/kg, injection 5 days then infusion 13 days, then 24 h PTH
  serum calcium: 21 mg/dL
[2]; 3 mg/kg, injection 5 days then infusion 13 days, then 24 h PTH
  serum calcium: 20 mg/dL
[2]; 10 mg/kg daily subcutaneous injection 18 days, then 24 h PTH
  serum calcium: 18 mg/dL
[2]; 10 mg/kg, injection 5 days then infusion 13 days, then 24 h PTH
  serum calcium: 18 mg/dL
[2]; 20 mg/kg, injection 5 days then infusion 13 days, then 24 h PTH
  serum calcium: 18 mg/dL
[2]; 30 mg/kg daily subcutaneous injection 18 days, then 24 h PTH
  serum calcium: 14 mg/dL
[2]; 30 mg/kg, injection 5 days then infusion 13 days, then 24 h PTH
  serum calcium: 17 mg/dL
[3]; mice, total 450 mg/kg, various dosing schedules, 24 hours PTH infusion
  rise in serum calcium concentration in response to PTH infusion: can similarly prevent the rise in serum calcium concentration
[3]; total 450 mg/kg, 30 mg/kg/day 5 days then every fourth day (6 injections over 24 days), then 24 h PTH
  Serum calcium concentration: 18 mg/dL
[3]; total 450 mg/kg, 30 mg/kg/day 5 days then every other day (12 injections over 24 days), then 24 h PTH
  Serum calcium concentration: 16 mg/dL
[3]; total 450 mg/kg, 30 mg/kg/day 5 days then every third day (8 injections over 24 days), then 24 h PTH
  Serum calcium concentration: 17 mg/dL
[3]; total 450 mg/kg, daily injections for 2 weeks, then 24 h PTH
  Serum calcium concentration: 16 mg/dL

B1: parathyroid hormone (peptide, UniProt P01270 32-115, looked up)
Parathyroid hormone: SVSEIQLMHNLGKHLNSMERVEWLRKKLQDVHNFVALGAPLAPRDAGSQRPRKKEDNVLVESHEKSLGEADKADVNVLTKAKSQ
notes: parathyroid hormone infused to induce bone resorption in the mouse model
[4]; 6 hours
  Serum Calcium Concentration % control: 109 % control
[4]; 12 hours
  Serum Calcium Concentration % control: 115 % control
[4]; 18 hours
  Serum Calcium Concentration % control: 125 % control
[4]; 24 hours (4 ug/100 g)
  Serum Calcium Concentration % control: 230 % control
[1]; control mice, no oligonucleotide, PTH 1 ug/100 g/6 hr, calcitonin 400 ng, after 16 hours
  Serum calcium concentration: 9 mg/dL
[2]; control mice, no oligonucleotide, PTH 1 ug/100 g/6 hr 24 h, calcitonin 400 ng
  serum calcium: 20 mg/dL
[3]; control group, PTH alone 1 ug/100 g/6 hr, 24 h
  Serum calcium concentration: 21 mg/dL
